We go through 7 compounds from article PMC2867455 (Journal of medicinal chemistry, 2010).

Series [1] concerns the target T1, PFTase (Saccharomyces cerevisiae, UniProt P22007+P29703).
T1 sequence (P22007 1-431): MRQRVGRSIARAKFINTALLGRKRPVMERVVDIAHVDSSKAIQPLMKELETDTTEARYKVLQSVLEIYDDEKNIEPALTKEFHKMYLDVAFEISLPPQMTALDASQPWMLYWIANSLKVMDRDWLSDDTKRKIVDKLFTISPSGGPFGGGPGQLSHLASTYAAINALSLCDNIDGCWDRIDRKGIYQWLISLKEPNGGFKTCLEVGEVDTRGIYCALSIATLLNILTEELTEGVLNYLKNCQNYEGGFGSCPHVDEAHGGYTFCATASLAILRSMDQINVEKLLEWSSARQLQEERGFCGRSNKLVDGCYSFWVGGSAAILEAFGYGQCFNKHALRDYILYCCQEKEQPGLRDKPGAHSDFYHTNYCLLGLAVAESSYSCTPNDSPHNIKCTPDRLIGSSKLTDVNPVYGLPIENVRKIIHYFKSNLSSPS
T1 sequence (P29703 1-316): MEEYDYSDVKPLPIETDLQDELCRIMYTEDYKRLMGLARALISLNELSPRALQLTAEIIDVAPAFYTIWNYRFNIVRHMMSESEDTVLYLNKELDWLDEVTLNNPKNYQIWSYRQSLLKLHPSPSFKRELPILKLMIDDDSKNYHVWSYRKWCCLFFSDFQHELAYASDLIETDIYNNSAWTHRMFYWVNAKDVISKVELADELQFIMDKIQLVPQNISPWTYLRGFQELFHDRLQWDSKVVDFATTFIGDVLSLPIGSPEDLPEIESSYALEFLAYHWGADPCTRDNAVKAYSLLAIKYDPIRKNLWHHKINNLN
Kind of series: PFTase in vitro continuous-fluorescence assay. It counts as biochemical.

The next series deals with GFP-H-Ras. The series can be described thus: Cell based analysis of GFP-H-Ras processing in MDCK cells.
In series [2] the test system is mouse models of leukemia and melanoma. The conditions noted are these: intra-peritoneal delivery; cited from earlier work.
Series [3] addresses PFTase. The conditions noted are these: read-out: IC50 for PFTase; cited from earlier work.
[4] abbreviates: at concentrations as high as 100 µM, 0.04% Triton X-100.

Consider `CC(=O)N1CCN(c2ccc(OCC3COC(Cn4ccnc4)(c4ccc(Cl)cc4Cl)O3)cc2)CC1` (stereo not shown) [Ketoconazole], for which the “PFTase inhibition (in words)” value on PFTase [1] (setting [4]) was “little to no inhibition”.
Regarding `Clc1ccc(COC(Cn2ccnc2)c2ccc(Cl)cc2Cl)c(Cl)c1` (stereo not shown) [Miconazole], the “inhibition of GFP-H-Ras processing” value in the series on GFP-H-Ras (10 µM, 48 h, cells remaining alive) is “significant inhibition of GFP-H-Ras processing”. Moreover, the toxicity to cells entry with MDCK cells was “toxicity and cell death”. Further, the “survival in mouse models of leukemia and melanoma” value in series [2] is listed as “promote survival”.
Consider `OC(Cn1cncn1)(Cn1cncn1)c1ccc(F)cc1F` [Fluconazole], for which the “PFTase inhibition (in words)” value at PFTase [1] (setting [4]) was “little to no inhibition”.
Tetraiodophenolphthalein [TPIT]: the “PFTase inhibition (in words)” value on PFTase [1] (continuous fluorescence assay) is recorded as “not an inhibitor of PFTase”.
For `Clc1ccccc1C(c1ccccc1)(c1ccccc1)n1ccnc1` [Clotrimazole], the “PFTase inhibition (in words)” value at PFTase [1] (setting [4]) was “little to no inhibition”.
For the compound `CCOC(=O)N1CCC(=C2c3ccc(Cl)cc3CCc3cccnc32)CC1` [Loratadine], in the series with GFP-H-Ras (25 µM, 24 h), the “inhibition of GFP-H-Ras processing” value was “appreciable inhibition of GFP-H-Ras processing”. The “inhibition of prenylation (GFP-H-Ras)” value with GFP-H-Ras (concentrations lower than 25 µM, 24 h) is reported as “did not manifest observable inhibition of prenylation”.
By IC50 is commonly meant the concentration needed to halve the response being measured. Regarding `CC(=O)OCC(=O)[C@@]1(O)CC[C@H]2[C@@H]3CCC4=CC(=O)CC[C@]4(C)[C@H]3C(=O)C[C@@]21C` [Cortisone acetate], on PFTase [3], the IC50 is 14 µM.
